Data published in patent publication US20230130766A1 (SALK INSTITUTE FOR BIOLOGICAL STUDIES, priority 2020, published 2023).

The compounds below were run against T1, ULK1 (Homo sapiens, UniProt O75385) (assay: ULK1 inhibition assay). Settings: * = tested as a mixture of regioisomers.
T1 sequence (O75385 1-1050): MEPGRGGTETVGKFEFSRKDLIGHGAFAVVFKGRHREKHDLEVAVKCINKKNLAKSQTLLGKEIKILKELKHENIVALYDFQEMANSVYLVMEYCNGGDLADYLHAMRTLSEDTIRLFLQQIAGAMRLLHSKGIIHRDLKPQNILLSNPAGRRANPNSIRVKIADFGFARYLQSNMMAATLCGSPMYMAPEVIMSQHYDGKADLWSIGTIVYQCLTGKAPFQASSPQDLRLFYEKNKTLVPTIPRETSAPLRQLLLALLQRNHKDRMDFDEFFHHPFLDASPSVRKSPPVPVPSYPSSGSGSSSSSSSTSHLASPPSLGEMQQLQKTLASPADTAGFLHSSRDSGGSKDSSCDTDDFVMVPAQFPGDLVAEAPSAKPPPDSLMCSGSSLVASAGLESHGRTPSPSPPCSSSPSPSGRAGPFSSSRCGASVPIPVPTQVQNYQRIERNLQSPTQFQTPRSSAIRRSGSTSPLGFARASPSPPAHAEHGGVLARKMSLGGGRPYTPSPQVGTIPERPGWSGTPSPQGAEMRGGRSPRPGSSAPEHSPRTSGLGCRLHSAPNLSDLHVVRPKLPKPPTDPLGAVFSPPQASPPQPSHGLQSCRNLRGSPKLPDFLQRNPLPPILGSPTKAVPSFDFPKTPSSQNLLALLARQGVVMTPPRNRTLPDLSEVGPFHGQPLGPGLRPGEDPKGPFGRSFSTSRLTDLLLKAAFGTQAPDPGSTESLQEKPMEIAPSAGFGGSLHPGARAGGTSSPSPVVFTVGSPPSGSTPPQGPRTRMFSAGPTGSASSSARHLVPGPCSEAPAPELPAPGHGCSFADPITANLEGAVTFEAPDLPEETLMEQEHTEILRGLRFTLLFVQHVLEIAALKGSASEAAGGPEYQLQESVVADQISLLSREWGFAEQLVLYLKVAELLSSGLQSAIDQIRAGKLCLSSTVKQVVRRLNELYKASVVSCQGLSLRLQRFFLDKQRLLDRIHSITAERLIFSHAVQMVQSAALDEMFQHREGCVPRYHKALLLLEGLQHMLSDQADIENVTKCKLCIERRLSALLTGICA
Assay type: biochemical

Compared with `CC(Cl)CNc1nc(Nc2ccc3c(c2)CCC(=O)N3)ncc1C(F)(F)F` (stereo not drawn) [Compound 183b], `CC(CCl)Nc1nc(Nc2ccc3c(c2)CCC(=O)N3)ncc1C(F)(F)F` (stereo not drawn) [Compound 183c] is higher in IC50: less than 200 nM for the first, greater than 2000 nM for the second. The first is the more potent here.

First: CN(c1ccccc1)c1nc(Nc2ccc3c(c2)CCC(=O)N3)ncc1C(F)(F)F [Compound 184a]
Second: CN(c1ccccc1)c1ncc(C(F)(F)F)c(Nc2ccc3c(c2)CCC(=O)N3)n1 [Compound 184b]
The IC50 of the first is higher: 200 to 2000 nM for the first, less than 200 nM for the second. The second is the more potent here.

`O=C1CCc2cc(Nc3ncc(C(F)(F)F)c(Nc4ccc5[nH]ncc5c4)n3)ccc2N1` [Compound 185] and `O=C1CCc2cc(Nc3ncc(C(F)(F)F)c(NCCO)n3)ccc2N1` [Compound 197] cannot be ordered by IC50: less than 200 nM for the first, less than 200 nM for the second.

`COc1cc(Nc2ncc(Br)c(NC3CC3)n2)cc(OC)c1OC` [Compound 186] and `COc1cc(Nc2ncc(C(F)(F)F)c(NC3CC3)n2)cc(OC)c1OC` [Compound 187] cannot be ordered by IC50: less than 200 nM for the first, less than 200 nM for the second.

`FC(F)(F)c1cnc(Nc2ccc3nn[nH]c3c2)nc1NC1CC1` [Compound 188] and `FC(F)(F)c1cnc(Nc2ccc3ncoc3c2)nc1NC1CC1` [Compound 208a] cannot be ordered by IC50: less than 200 nM for the first, less than 200 nM for the second.

`Oc1ncc(C(F)(F)F)c(NC2CC2)n1` [Compound 189] and `N=c1ccon1-c1ncc(C(F)(F)F)c(NC2CC2)n1` [Compound 214b] cannot be ordered by IC50: greater than 2000 nM for the first, greater than 2000 nM for the second.

`FC(F)(F)c1cnc(Nc2ccc3c(c2)OCCCO3)nc1NC1CC1` [Compound 190] and `FC(F)(F)c1cnc(Nc2ccc3c(c2)OCO3)nc1NC1CC1` [Compound 213] cannot be ordered by IC50: less than 200 nM for the first, less than 200 nM for the second.

`O=c1[nH]c2ncc(Nc3nc(Nc4ccc5c(c4)OCCO5)ncc3Br)cc2o1` [Compound 192] and `FC(F)(F)c1cnc(Nc2cnc3[nH]ccc3c2)nc1NC1COC1` [Compound 194] cannot be ordered by IC50: less than 200 nM for the first, less than 200 nM for the second.

Compared with `O=C1CCc2cc(Nc3ncc(C(F)(F)F)c(NC4COC4)n3)ccc2N1` [Compound 193], `O=C1CCc2cc(Nc3ncc(C(F)(F)F)c(NC4CNC4)n3)ccc2N1` [Compound 198a] is lower in IC50: greater than 2000 nM for the first, 200 to 2000 nM for the second. The second is the more potent here.

Compared with `FC(F)(F)c1cnc(Nc2cccnc2)nc1NC1CC1` [Compound 196], `FC(F)(F)c1cnc(Nc2cncnc2)nc1NC1CC1` [Compound 203] is lower in IC50: greater than 2000 nM for the first, less than 200 nM for the second. The second is the more potent here.

Compared with `O=C1CCc2cc(Nc3ncc(C(F)(F)F)c(NC4CN(c5nc(Nc6ccc7c(c6)CCC(=O)N7)ncc5C(F)(F)F)C4)n3)ccc2N1` [Compound 198b], `O=C1CCc2cc(Nc3ncc(C(F)(F)F)c(N4CC(F)(F)C4)n3)ccc2N1` [Compound 215] is lower in IC50: greater than 2000 nM for the first, less than 200 nM for the second.

First: O=C1CCc2cc(Nc3nccc(NC4CC4)n3)ccc2N1 [Compound 200]
Second: O=C1CCc2cc(Nc3ncc(C(F)(F)F)c(NCC4CC4)n3)ccc2N1 [Compound 216]
The IC50 of the first is higher: greater than 2000 nM for the first, less than 200 nM for the second.

Going from `CNC(=O)c1ccccc1Nc1nc(Nc2cnc3[nH]ccc3c2)ncc1C(F)(F)F` [Compound 201] to `Nc1nc(Nc2cnc3[nH]ccc3c2)ncc1C(F)(F)F` [Compound 217], the IC50 rises from less than 200 nM to greater than 2000 nM.

First: CN(c1nc(Nc2ccc3c(c2)CCC(=O)N3)ncc1C(F)(F)F)C1CC1 [Compound 202]
Second: Nc1nc(Nc2ccc3c(c2)CCC(=O)N3)ncc1C(F)(F)F [Compound 209]
The IC50 of the first is lower: less than 200 nM for the first, 200 to 2000 nM for the second. The first is the more potent here.

Compared with `c1cc(NC2CC2)nc(Nc2cnc3[nH]ccc3c2)n1` [Compound 204], `FC(F)(F)c1cnc(Nc2ccc3[nH]ccc3c2)nc1NC1CC1` [Compound 206] is lower in IC50: greater than 2000 nM for the first, less than 200 nM for the second. The second is the more potent here.

Compared with `OC1Nc2ccc(Nc3ncc(C(F)(F)F)c(NC4CC4)n3)cc2O1` (stereo not drawn) [Compound 208b], `FC(F)(F)c1cnc(Nc2ccon2)nc1NC1CC1` [Compound 214a] is higher in IC50: less than 200 nM for the first, 200 to 2000 nM for the second. The first is the more potent here.

Compared with `O=C1CCc2cc(Nc3ncc(C(F)(F)F)c(N(CCO)CCO)n3)ccc2N1` [Compound 212a], `O=C1CCc2cc(Nc3ncc(C(F)(F)F)c(OCCNCCO)n3)ccc2N1` [Compound 212b] is lower in IC50: greater than 2000 nM for the first, 200 to 2000 nM for the second.

`COC(=O)CNc1nc(Nc2ccc3c(c2)CCC(=O)N3)ncc1C(F)(F)F` [Compound 218] and `CCONc1nc(Nc2ccc3c(c2)CCC(=O)N3)ncc1C(F)(F)F` [Compound 219] cannot be ordered by IC50: greater than 2000 nM for the first, greater than 2000 nM for the second.
